Results reported in publication PMC3777854 (Journal of clinical pharmacology, 2013).
Entries after “also recorded” stand apart in the source; their conditions may differ. Marks after values point to notes of the source that are not given here. Square brackets hold non-standard residues; d marks the D form. Peptide text beside a SMILES is read from it. * marks the point of attachment. Dolaproine = CO[C@@H]([C@@H]1CCCN1)[C@@H](C)C(=O)O; Dil = CC[C@H](C)[C@H](NC)[C@@H](CC(=O)O)OC; X1 = C[C@@H](N*)[C@@H](O)c1ccccc1; NMeV = CN[C@H](C(=O)O)C(C)C

Key:
[1] = Excretion of MMAE in urine and feces; type: in vivo, human
[2] = on a mass basis; cited from earlier work
[3] = system: CYP3A; test: Effect of ketoconazole on brentuximab vedotin; type: in vivo, human; conditions: for MMAE Tmax: median (range); for MMAE Tmax / MMAE Cmax: n=16
[4] = system: CYP3A; test: Effect of brentuximab vedotin on midazolam PK; conditions: brentuximab vedotin 1.8 mg/kg; midazolam as probe substrate
[5] = system: CYP3A; test: Effect of rifampin on brentuximab vedotin; type: in vivo, human; conditions: for MMAE Tmax: median (range)
[6] = system: CYP3A; conditions: not of this paper; cited from earlier work

For `CC[C@H](C)[C@@H]([C@@H](CC(=O)N1CCC[C@H]1[C@H](OC)[C@@H](C)C(=O)N[C@H](C)[C@@H](O)c1ccccc1)OC)N(C)C(=O)[C@@H](NC(=O)[C@@H](NC)C(C)C)C(C)C` [MMAE, monomethyl auristatin E] (H-[NMeV]V[Dil][Dolaproine]-X1), the “number of MMAE metabolites detected in urine and feces” value ([1]; after concentrating the liquid-liquid extracts ten-fold, LC-MS/MS) was 8, the “concentration of MMAE in excreta relative to its metabolites” value ([1]; estimate, metabolites only detected upon 10-fold concentration) was “at least 10 fold” and the “MMAE recovered in urine and feces” value ([1]; of MMAE received during a brentuximab vedotin 1.8 mg/kg infusion, over a 1-week period, n=8) was ~ 23.5%. The “percentage of recovered MMAE excreted in feces, median” value ([1]; over 1 week after brentuximab vedotin 1.8 mg/kg, remainder in urine) was 72%, the “MMAE exposures lower than those of the ADC” value [2] was ~ 2000 fold and the “MMAE AUC0-∞” value ([3]; brentuximab vedotin 1.2 mg/kg IV alone, plasma, geometric mean (%CV), n=14) was 26.65 (71) d·ng/mL. The “MMAE t1/2” value ([3]; brentuximab vedotin 1.2 mg/kg alone, geometric mean (%CV), n=14) was 3.06 (13) d, the “MMAE Tmax” value ([3]; brentuximab vedotin 1.2 mg/kg alone) was 1.97 (0.97, 6.99) ^a d and the “MMAE Cmax” value ([3]; brentuximab vedotin 1.2 mg/kg alone, plasma, geometric mean (%CV)) was 4.11 (71) ng/mL. For the same molecule, the “MMAE exposures higher when ketoconazole was coadministered” value ([3]; brentuximab vedotin 1.2 mg/kg with ketoconazole vs alone) was ~ 34%, the “MMAE t1/2” value ([3]; brentuximab vedotin 1.2 mg/kg with ketoconazole, geometric mean (%CV), n=14) was 3.47 (66) d and the “MMAE Tmax” value ([3]; brentuximab vedotin 1.2 mg/kg with ketoconazole) was 2.45 (0.22, 4.06) ^a d. For the same molecule, the “MMAE Cmax” value ([3]; brentuximab vedotin 1.2 mg/kg with ketoconazole, plasma, geometric mean (%CV)) was 5.13 (114) ng/mL, the “potential increase of MMAE AUC0-∞ by coadministration of ketoconazole” value ([3]; in Cycle 1, exploratory analysis of the period effect) was ~ 73% and the “expected increase in MMAE levels with ketoconazole” value ([3]; later cycles, relative to Cycle 1 MMAE levels without ketoconazole) was no more than 38%. For the same molecule, the “inhibition or induction of CYP3A in humans (conclusion)” value [4] was “neither inhibitors nor inducers of CYP3A; also recorded: neither an inhibitor nor inducer of CYP3A”, the “MMAE AUC0-∞” value ([5]; brentuximab vedotin 1.8 mg/kg IV alone, plasma, geometric mean (%CV), n=14) was 40.06 (53) d·ng/mL and the “MMAE t1/2” value ([5]; brentuximab vedotin 1.8 mg/kg alone, geometric mean (%CV), n=14) was 3.71 (19) d. For the same molecule, the “MMAE Tmax” value ([5]; brentuximab vedotin 1.8 mg/kg alone, n=14) was 3.00 (0.99, 5.01) ^a d, the “MMAE Cmax” value ([5]; brentuximab vedotin 1.8 mg/kg alone, plasma, geometric mean (%CV), n=14) was 4.98 (67) ng/mL and the “MMAE exposures lower when rifampin was coadministered” value ([5]; brentuximab vedotin 1.8 mg/kg with rifampin vs alone) was ~ 46%. For the same molecule, the “MMAE t1/2” value ([5]; brentuximab vedotin 1.8 mg/kg with rifampin, geometric mean (%CV), n=14) was 3.66 (17) d, the “MMAE Tmax” value ([5]; brentuximab vedotin 1.8 mg/kg with rifampin, n=14) was 1.49 (0.33, 4.02) ^a d and the “MMAE Cmax” value ([5]; brentuximab vedotin 1.8 mg/kg with rifampin, plasma, geometric mean (%CV), n=14) was 2.80 (36) ng/mL. For the same molecule, the “CYP3A induction (in vitro studies)” value [6] was “does not induce CYP3A”.
